Experimental data as given in patent US20250339408A1, “TREATMENT AND PREVENTION OF BASAL CELL CARCINOMA WITH TOPICAL COMPOSITION COMPRISING PATIDEGIB” (Sol-Gel Technologies Ltd., priority 2023, published 2025).

Test system: basal cell carcinoma (BCC) lesions on the face
Assay: Randomized, double-blind, vehicle-controlled study of Patidegib Topical Gel, 2% in Gorlin syndrome participants with PTCH1 mutation (Example 2)
Format: in vivo, human
Excerpt: The term “nSEB” refers to BCCs with a longest diameter of ≥5 mm that: • a. were not surgically eligible BCCs (SEBs) at baseline; • b. have grown by ≥2 mm in longest diameter from baseline; and • c. have been verified histologically.
The term “SEB” refers to surgically eligible BCCs with a longest diameter of ≥5 mm.
The term “resolved SEB lesions” refers to BCCs lesions which no longer requires a surgical removal treatment. In another embodiment the term “resolved SEB lesions” refers to BCCs lesions with a diameter <5 mm or the BCC lesions are completely disappeared.
A randomized, double-blind, stratified, vehicle-controlled study was done, measuring the efficacy and safety of Patidegib Topical Gel, 2%, applied topically twice daily to the face of adult participants with Gorlin syndrome. The Participants were required to apply the investigational product for 12 months. The primary endpoint is a comparison between the two treatment—Patidegib Topical Gel, 2%, versus Vehicle, resulted the of the number of new BCCs that develop over the 12 month period.
Participants will be randomized to receive Patidegib Topical Gel, 2%. The Patidegib Topical Gel, 2% will be dispensed to participants at each study visit and applied topically twice daily to the face.
Participants will be randomized to receive Vehicle. The Patidegib Topical Gel, Vehicle will be dispensed to participants at each study visit and applied topically twice daily to the face.
• 1. The participant must be age at least 18 years of age at the Screening Visit. • 2. The participant must provide written informed consent prior to any study procedures. • 3. The participant must meet diagnostic criteria for the basal cell nevus (Gorlin) syndrome including PTCH1 gene mutation, or at least 6 histologically confirmed facial BCC lesions at Baseline and PTCH1 gene mutation. • 4. The participant is willing to have blood collected to measure circulating drug levels. • 5. The participant is willing to abstain from application of a non-study topical medication (prescription or over the counter) to facial skin for the duration of the trial except as prescribed by the Investigator. Moisturizers and emollients are allowed. Participant will be encouraged to use their preferred sunscreen with a sun protector factor (SPF) of at least 30 daily on all exposed skin sites. • 6. If the participant is a woman of childbearing potential (WOCBP), they must be willing to use complete abstinence from sexual intercourse and/or they and their partner must be willing to use at least 2 highly-effective forms of birth control starting prior to Baseline, through the duration of the study, and for 12 months after last application of IP. • 7. If the participant is a male with a female sex partner who is a WOCBP, the participant must be willing to use condoms, even after a vasectomy, starting prior to Baseline, through the duration of the study, and for at least 8 months after the last application of IP. • 8. The participant is willing for all facial BCCs to be evaluated and treatment recommendations made only by the Investigator. • 9. The participant is willing to forego treatment of facial BCCs with anything other than the study IP except when the Investigator believes that delay of treatment of a facial BCC potentially might compromise the health of the subject. During the trial the only allowed form of treatment is surgical. Non-facial BCCs may be removed at the discretion of the Investigator or Primary Skin Care Physician (PSCP).
• 1. The subject has previously participated in a clinical trial evaluating patidegib topical gel. • 2. The participant has used topical treatment to the face or systemic therapies that might interfere with the evaluation of the study IP. Among these are use of the following: • a. 5-fluorouracil, imiquimod, diclofenac, or Ingenol mebutate (except as topical treatment to discrete non-facial BCCs) systemically or topically to the skin within the 2 months prior to the Screening Visit. • b. […]

[1] = PTCH1 mutation, baseline total facial BCC lesions at least 6, gel 2% twice daily to face, month 3
[2] = PTCH1 mutation, baseline total facial BCC lesions at least 6, gel 2% twice daily to face, month 6
[3] = PTCH1 mutation, baseline total facial BCC lesions at least 6, gel 2% twice daily to face, month 9
[4] = PTCH1 mutation, baseline total facial BCC lesions at least 6, gel 2% twice daily to face, month 12
[5] = PTCH1 mutation, baseline total facial BCC lesions at least 8, gel 2% twice daily to face, month 3
[6] = PTCH1 mutation, baseline total facial BCC lesions at least 8, gel 2% twice daily to face, month 6
[7] = PTCH1 mutation, baseline total facial BCC lesions at least 8, gel 2% twice daily to face, month 9
[8] = PTCH1 mutation, baseline total facial BCC lesions at least 8, gel 2% twice daily to face, month 12
[9] = PTCH1 mutation, baseline total facial BCC lesions at least 10, gel 2% twice daily to face, month 3
[10] = PTCH1 mutation, baseline total facial BCC lesions at least 10, gel 2% twice daily to face, month 6
[11] = PTCH1 mutation, baseline total facial BCC lesions at least 10, gel 2% twice daily to face, month 9
[12] = PTCH1 mutation, baseline total facial BCC lesions at least 10, gel 2% twice daily to face, month 12
[13] = PTCH1 mutation, gel 2% twice daily to face
[14] = PTCH1 mutation, gel 2% twice daily to face, month 3
[15] = PTCH1 mutation, gel 2% twice daily to face, month 6
[16] = PTCH1 mutation, gel 2% twice daily to face, month 9
[17] = PTCH1 mutation, gel 2% twice daily to face, month 12
[18] = per subject, PTCH1 mutation, by month 12
[19] = per subject, more than 6 BCC lesions at baseline, Baseline to month 12

For `CC1=C2C[C@H]3[C@@H](CC[C@@H]4C[C@H](NS(C)(=O)=O)CC[C@@]43C)[C@@H]2CC[C@@]2(C1)O[C@@H]1C[C@H](C)CN[C@H]1[C@H]2C` [Patidegib], the “Overall efficacy in treating or preventing BCC lesions (in words)” value (Gorlin syndrome with genetic mutation PTCH1) was “effective in treating or preventing BCC lesions”, the “Number of qualifying nSEBs, observed, Mean” value (from here on “Number of qualifying nSEBs”) (PTCH1 mutation, baseline total BCC facial lesions at least 6, gel 2% twice daily to face, month 3) was 0.28 and the “Number of qualifying nSEBs” value (PTCH1 mutation, baseline total BCC facial lesions at least 6, gel 2% twice daily to face, month 6) was 0.42. For the same compound, the “Number of qualifying nSEBs” value (PTCH1 mutation, baseline total BCC facial lesions at least 6, gel 2% twice daily to face, month 9) was 0.83, the “Number of qualifying nSEBs” value (PTCH1 mutation, baseline total BCC facial lesions at least 6, gel 2% twice daily to face, month 12) was 0.47 and the “Number of new BCCs excluding no longer suspicious BCCs, observed, Mean” value [1] was 0.80. For the same compound, the “Proportion of SEBs clinically resolved, observed, Mean” value (from here on “Proportion”) [1] was 6.61, the “Number of new BCCs excluding no longer suspicious BCCs, observed, Mean” value [2] was 1.68 and the “Proportion” value [2] was 3.11. The “Number of new BCCs excluding no longer suspicious BCCs, observed, Mean” value [3] was 2.49, the “Proportion” value [3] was 10.22 and the “Number of new BCCs excluding no longer suspicious BCCs, observed, Mean” value [4] was 2.78. For the same compound, the “Proportion” value [4] was 18.79, the “Number of new BCCs excluding no longer suspicious BCCs, observed, Mean” value [5] was 0.94 and the “Number of qualifying nSEBs” value [5] was 0.31. The “Proportion” value [5] was 5.98, the “Number of new BCCs excluding no longer suspicious BCCs, observed, Mean” value [6] was 1.96 and the “Number of qualifying nSEBs” value [6] was 0.52. The “Proportion” value [6] was 1.30, the “Number of new BCCs excluding no longer suspicious BCCs, observed, Mean” value [7] was 2.71 and the “Number of qualifying nSEBs” value [7] was 0.96. The “Proportion” value [7] was 8.73, the “Number of new BCCs excluding no longer suspicious BCCs, observed, Mean” value [8] was 2.96 and the “Number of qualifying nSEBs” value [8] was 0.52. For the same compound, the “Proportion” value [8] was 12.84, the “Number of new BCCs excluding no longer suspicious BCCs, observed, Mean” value [9] was 1.00 and the “Number of qualifying nSEBs” value [9] was 0.41. The “Proportion” value [9] was 8.50, the “Number of new BCCs excluding no longer suspicious BCCs, observed, Mean” value [10] was 1.93 and the “Number of qualifying nSEBs” value [10] was 0.64. The “Proportion” value [10] was 2.05, the “Number of new BCCs excluding no longer suspicious BCCs, observed, Mean” value [11] was 2.56 and the “Number of qualifying nSEBs” value [11] was 1.00. For the same compound, the “Proportion” value [11] was 13.39, the “Number of new BCCs excluding no longer suspicious BCCs, observed, Mean” value [12] was 2.88 and the “Number of qualifying nSEBs” value [12] was 0.56. The “Proportion” value [12] was 16.89, the “LS Mean for new BCCs per year (Std Err)” value [13] was 2.83 and the “Predicted new BCCs per year using observed covariates (95% CI)” value [13] was 3.09. For the same compound, the “Number of new BCCs excluding no longer suspicious BCCs, observed, Mean” value [14] was 0.69, the “Number of qualifying nSEBs” value [14] was 0.21 and the “Proportion” value [14] was 5.42. For the same compound, the “Number of new BCCs excluding no longer suspicious BCCs, observed, Mean” value [15] was 1.59, the “Number of qualifying nSEBs” value [15] was 0.38 and the “Proportion” value [15] was 2.76. The “Number of new BCCs excluding no longer suspicious BCCs, observed, Mean” value [16] was 2.17, the “Number of qualifying nSEBs” value [16] was 0.70 and the “Proportion” value [16] was 8.11. The “Number of new BCCs excluding no longer suspicious BCCs, observed, Mean” value [17] was 2.61, the “Number of qualifying nSEBs” value [17] was 0.50 and the “Proportion” value [17] was 14.68. The “Total new BCCs” value (all subjects of the arm, PTCH1 mutation, by month 12) was 114, the “Total BCCs surgeries from Baseline to month 12” value (all subjects of the arm, more than 6 BCC lesions at baseline) was 14 and the “Rate-ratio: Patidegib/Vehicle (Std Err)” value (new BCCs per year, PTCH1 mutation) was 0.91. For the same compound, the “Number of new BCCs by Month 12 - Max” value [18] was 8, the “Number of new BCCs by Month 12 - Median” value [18] was 2.0 and the “Number of new BCCs by Month 12 - Min” value [18] was 0. For the same compound, the “Number of new BCCs by Month 12 - Q1” value [18] was 1.0, the “Number of new BCCs by Month 12 - Q3” value [18] was 5.0 and the “Number of new BCCs by Month 12 - Mean (SD)” value (per subject, PTCH1 mutation, gel 2% twice daily to face, by month 12) was 3.08. For the same compound, the “Number of BCCs surgeries - Max” value [19] was 5, the “Number of BCCs surgeries - Median” value [19] was 0.0 and the “Number of BCCs surgeries - Min” value [19] was 0. For the same compound, the “Number of BCCs surgeries - Q1” value [19] was 0, the “Number of BCCs surgeries - Q3” value [19] was 1 and the “Number of BCCs surgeries - Mean (SD)” value (per subject, more than 6 BCC lesions at baseline, Baseline to month 12, gel 2% twice daily to face) was 0.6 (1.47).
